Results: paper PMC5542777 (Bioorganic & medicinal chemistry letters, 2017)

Assays:
[1] = Brain penetration in mice; assay type: in vivo; details: for brain permeability / brain penetration: 5 mg/kg IP; for Kp at 60 min: mouse, brain and plasma, ip
[2] = Oral pharmacokinetics in mice; assay type: in vivo; details: oral gavage 50 mg/kg

| brain permeability / brain penetration ([1]; mice) | brain levels ([1]; mice, 60 min after IP injection, 5 mg/kg) | Kp at 60 min ([1]; 5 mg/kg) | plasma exposure [2] | Structure (SMILES) |
| --- | --- | --- | --- | --- |
| poor | undetectable | – | – | Clc1cc(Br)cc(CN[C@H]2CCCN(c3nc4nc(Cl)ccc4[nH]3)C2)c1 [Compound 5b] |
| – | – | 0.044 ± 0.006 | – | CCOc1c(Br)cc(Br)cc1CN[C@H]1CCCN(c2nc3nc(Cl)ccc3[nH]2)C1 [Compound 5p] |
| moderately good brain penetration | – | 0.191 ± 0.075 | low plasma exposure | CN(CCN[C@@H]1CCNc2c(Cl)cc(Cl)cc21)c1nc2nc(Cl)ccc2[nH]1 [Compound 13] |
